Laboratory results taken from patent US7148229B2, “Sulfonamide substituted xanthine derivatives” (Hoffman-La Roche Inc., priority 2003, dated 2006).
Counter-ions that a name gives are not always drawn.

These compounds were tested against T1, recombinant human cytosolic PEPCK (GST-PEPCK) (Homo sapiens, UniProt P35558) (assay: PEPCK enzyme assay (coupled to pyruvate kinase / lactate dehydrogenase, absorbance at 340 nm)). Details: in vitro PEPCK enzymatic assay; GTP at 3 fold and OAA at 10 fold Km; final DMSO 10%; room temperature, twenty minutes.
T1 construct: made in house; host or cells: E. coli
T1 sequence (P35558 1-622): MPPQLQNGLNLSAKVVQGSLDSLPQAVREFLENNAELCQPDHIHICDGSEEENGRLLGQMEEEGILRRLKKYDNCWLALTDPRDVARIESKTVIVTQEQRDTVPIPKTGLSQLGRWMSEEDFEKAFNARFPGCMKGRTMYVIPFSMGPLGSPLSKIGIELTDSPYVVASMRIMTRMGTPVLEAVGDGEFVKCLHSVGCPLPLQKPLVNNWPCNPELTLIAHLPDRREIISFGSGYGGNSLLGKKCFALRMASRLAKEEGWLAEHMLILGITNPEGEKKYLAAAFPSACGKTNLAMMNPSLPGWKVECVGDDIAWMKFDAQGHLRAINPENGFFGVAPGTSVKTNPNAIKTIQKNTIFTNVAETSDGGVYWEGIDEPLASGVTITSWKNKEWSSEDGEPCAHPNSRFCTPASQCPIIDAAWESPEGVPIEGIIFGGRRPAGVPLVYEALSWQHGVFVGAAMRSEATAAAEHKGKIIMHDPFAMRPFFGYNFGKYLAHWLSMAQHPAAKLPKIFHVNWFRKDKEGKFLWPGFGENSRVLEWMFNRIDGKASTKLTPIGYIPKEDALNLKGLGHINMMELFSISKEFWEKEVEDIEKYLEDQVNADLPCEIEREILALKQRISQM
Type: biochemical
Experimental: E. coli cells expressing GST-PEPCK were suspended in 5 volumes of lysis buffer (50 mM Tris-hydroxymethyl aminomethyl (TRIS), 150 mM sodium chloride (NaCl), 10 mM ethylene-diametetraacetic acid (EDTA), 5 mM dithiothreitol(DTT), 1% Nonidet P-40, pH 7.4) in the presence of protease inhibitors, incubated with lysozyme at 200 micrograms/ml for 30 min. at room temperature, and sonicated 4×30 seconds at 4 degrees C. After centrifugation at 12,000×g for 20 min. to remove insoluble material, the supernatant was loaded onto glutathione Sepharose (Pharmacia), washed with lysis buffer followed by washing with lysis buffer in the absence of NP-40. GST-PEPCK was eluted with the same buffer containing 20 mM glutathione. The eluted protein was concentrated and dialyzed against 25 mM Hepes(N-[2-hydroxyethyl]piperazine-N′[2-ethanesulfonic acid), 150 mM NaCl, 2.5 mM EDTA, 5 mM DTT, 30% glycerol, pH 7.4, and stored at −20° C.
The inhibitory effect of the compounds of the present invention on PEPCK enzymatic activity was determined using recombinant human cytosolic PEPCK, expressed and purified from E.coli as a GST-fusion. Guanosine triphosphate (GTP) and manganese dependent PEPCK enzyme activity catalyzed the decarboxylation of oxalacetate leading to the formation of guanosine diphosphate (GDP) and phosphoenol pyruvate (PEP). This reaction is coupled to pyruvate kinase and lactate dehydrogenase catalyzed reactions and the overall reaction rate determined by measuring the change in absorbance at 340 nm (Chang, H. C. and Lane M. D., J. Biol. Chem. 241:2413–2420, 1966). The following modifications were made to the protocol: 2.5 μg of recombinant, human cytosolic glutathione-S-transferase (GST)-PEPCK was added to a reaction mixture at room temperature which contained 0.3 mM GTP, 0.3 mM oxaloacetate (OAA), 3 mM magnesium chloride (MgCl2), 0.075 mM manganese chloride (MnCl2), 30 mM potassium phosphates (KPO4), pH 7.6, 1 mM dithiothreitol (DTT), 0.2 mM adenosine diphosphate (ADP), 1 mM nicotinamide adenine dinucleotide, reduced form (NADH), 0.9 Units/ml each of pyruvate kinase and lactate dehydrogenase and 1 mg/ml bovine serum albumin (BSA). Test compounds were added such that final concentration of DMSO was 10%. Reactions were run for twenty minutes.
Km values for GTP and OAA were determined according to Michelis-Menton conditions as described in Comish-Bowden (Fundamentals of Enzyme Kinetics, 1995) in essentially the coupled assay conditions described above. […] Test compounds were added to reactions over a range of concentrations and IC50's were calculated from plots of inhibitor concentration versus enzyme rate. This method of determination of IC50 values is equally applicable to calculations based on PEPCK cellular assay.

| Compound | IC50 [µM] |
| --- | --- |
| Cn1cnc(S(=O)(=O)Nc2ccc(Cc3nc4c([nH]3)c(=O)n(Cc3ccccc3F)c(=O)n4CC3CC3)cc2)c1 [Example 14, 1-Methyl-1H-imidazole-4-sulfonic acid {4-[3-cyclopropylmethyl-1-(2-fluoro-benzyl)-2,6-dioxo-2,3,6,7-tetrahydro-1H-purin-8-ylmethyl]-phenyl}-amide] | 0.41 |
| Cc1nc(N)sc1S(=O)(=O)Nc1ccc(Cc2nc3c([nH]2)c(=O)n(Cc2ccccc2F)c(=O)n3CC2CC2)cc1 [Example 11, 2-Amino-4-methyl-thiazole-5-sulfonic acid {4-[3-cyclopropylmethyl-1-(2-fluoro-benzyl)-2,6-dioxo-2,3,6,7-tetrahydro-1H-purin-8-ylmethyl]-phenyl}-amide trifluoro-acetic acid salt] | 0.23 |
| CCCCn1c(=O)n(Cc2ccccc2F)c(=O)c2[nH]c(Cc3ccc(S(=O)(=O)Nc4c(C)nn(C)c4C)cc3)nc21 [Example 32, 4-[3-Butyl-1-(2-fluoro-benzyl)-2,6-dioxo-2,3,6,7-tetrahydro-1H-purin-8-ylmethyl]-N-(1,3,5-trimethyl-1H-pyrazol-4-yl)-benzenesulfonamide] | 6.45 |
| Cc1nn(C)c(Cl)c1S(=O)(=O)Nc1cccc(Cc2nc3c([nH]2)c(=O)n(Cc2ccccc2F)c(=O)n3CC2CC2)c1 [Example 6, 5-Chloro-1,3-dimethyl-1H-pyrazole-4-sulfonic acid {3-[3-cyclopropylmethyl-1-(2-fluoro-benzyl)-2,6-dioxo-2,3,6,7-tetrahydro-1H-purin-8-ylmethyl]-phenyl}-amide] | 1.1 |
| CCCCn1c(=O)n(Cc2ccccc2)c(=O)c2[nH]c(Cc3ccc(NS(C)(=O)=O)cc3)nc21 [Example 24, N-[4-(1-Benzyl-3-butyl-2,6-dioxo-2,3,6,7-tetrahydro-1H-purin-8-ylmethyl)-phenyl]-methanesulfonamide] | 7.55 |
| Cc1nn(C)c(Cl)c1S(=O)(=O)Nc1ccc(Cc2nc3c([nH]2)c(=O)n(Cc2ccccc2F)c(=O)n3CC2CC2)cc1 [Example 1, 5-Chloro-1,3-dimethyl-1H-pyrazole-4-sulfonic acid {4-[3-cyclopropylmethyl-1-(2-fluoro-benzyl)-2,6-dioxo-2,3,6,7-tetrahydro-1H-purin-8-ylmethyl]-phenyl}-amide] | 0.29 |
| Cc1nn(C)c(Cl)c1S(=O)(=O)Nc1ccc(Cc2nc3c([nH]2)c(=O)n(Cc2ccccc2F)c(=O)n3CC2CCC2)nc1 [Example 26, 5-Chloro-1,3-dimethyl-1H-pyrazole-4-sulfonic acid {6-[3-cyclobutylmethyl-1-(2-fluoro-benzyl)-2,6-dioxo-2,3,6,7-tetrahydro-1H-purin-8-ylmethyl]-pyridin-3-yl}-amide] | 0.98 |
| Cn1cc(S(=O)(=O)Nc2ccc(Cc3nc4c([nH]3)c(=O)n(Cc3ccccc3F)c(=O)n4CC3CC3)cc2)cn1 [Example 2, 1-Methyl-1H-pyrazole-4-sulfonic acid {4-[3-cyclopropylmethyl-1-(2-fluoro-benzyl)-2,6-dioxo-2,3,6,7-tetrahydro-1H-purin-8-ylmethyl]-phenyl}-amide] | 0.39 |
| O=c1c2[nH]c(Cc3ccc(NS(=O)(=O)c4cccc(F)c4)cc3)nc2n(CC2CC2)c(=O)n1Cc1ccccc1F [Example 4, N-{4-[3-Cyclopropylmethyl-1-(2-fluoro-benzyl)-2,6-dioxo-2,3,6,7-tetrahydro-1H-purin-8-ylmethyl]-phenyl}-3-fluoro-benzenesulfonamide] | 2.55 |
| CCCCn1c(=O)n(Cc2ccccc2F)c(=O)c2[nH]c(Cc3ccc(S(=O)(=O)Nc4ncccn4)cc3)nc21 [Example 31, 4-[3-Butyl-1-(2-fluoro-benzyl)-2,6-dioxo-2,3,6,7-tetrahydro-1H-purin-8-ylmethyl]-N-pyrimidin-2-yl-benzenesulfonamide] | 6.35 |
| CCCCn1c(=O)n(Cc2ccccc2F)c(=O)c2[nH]c(Cc3ccc(S(=O)(=O)Nc4ccncc4)cc3)nc21 [Example 29, 4-[3-Butyl-1-(2-fluoro-benzyl)-2,6-dioxo-2,3,6,7-tetrahydro-1H-purin-8-ylmethyl]-N-pyridin-4-yl-benzenesulfonamide] | 2.4 |
| O=c1c2[nH]c(Cc3ccc(NS(=O)(=O)c4cccnc4)cc3)nc2n(CC2CC2)c(=O)n1Cc1ccccc1F [Example 22, Pyridine-3-sulfonic acid {4-[3-cyclopropylmethyl-1-(2-fluoro-benzyl)-2,6-dioxo-2,3,6,7-tetrahydro-1H-purin-8-ylmethyl]-phenyl}-amide trifluoro-acetic acid salt] | 1.95 |
| Cc1noc(C)c1S(=O)(=O)Nc1ccc(Cc2nc3c([nH]2)c(=O)n(Cc2ccccc2F)c(=O)n3CC2CC2)cc1 [Example 12, 3,5-Dimethyl-isoxazole-4-sulfonic acid {4-[3-cyclopropylmethyl-1-(2-fluoro-benzyl)-2,6-dioxo-2,3,6,7-tetrahydro-1H-purin-8-ylmethyl]-phenyl}-amide] | 0.79 |
| Cc1nn(C)cc1S(=O)(=O)Nc1ccc(Cc2nc3c([nH]2)c(=O)n(Cc2ccccc2F)c(=O)n3CC2CC2)cc1 [Example 7, 1,3-Dimethyl-1H-pyrazole-4-sulfonic acid {4-[3-cyclopropylmethyl-1-(2-fluoro-benzyl)-2,6-dioxo-2,3,6,7-tetrahydro-1H-purin-8-ylmethyl]-phenyl}-amide] | 0.15 |
| CS(=O)(=O)Nc1ccc(Cc2nc3c([nH]2)c(=O)n(Cc2ccccc2F)c(=O)n3CC2CC2)cc1 [Example 23, N-{4-[3-Cyclopropylmethyl-1-(2-fluoro-benzyl)-2,6-dioxo-2,3,6,7-tetrahydro-1H-purin-8-ylmethyl]-phenyl}-methanesulfonamide] | 1.25 |
| O=c1c2[nH]c(Cc3ccc(NS(=O)(=O)c4cccc5cccnc45)cc3)nc2n(CC2CC2)c(=O)n1Cc1ccccc1F [Example 19, Quinoline-8-sulfonic acid {4-[3-cyclopropylmethyl-1-(2-fluoro-benzyl)-2,6-dioxo-2,3,6,7-tetrahydro-1H-purin-8-ylmethyl]-phenyl}-amide] | 0.45 |
| CCCCn1c(=O)n(Cc2ccccc2F)c(=O)c2[nH]c(Cc3ccc(S(=O)(=O)Nc4cccnc4)cc3)nc21 [Example 30, 4-[3-Butyl-1-(2-fluoro-benzyl)-2,6-dioxo-2,3,6,7-tetrahydro-1H-purin-8-ylmethyl]-N-pyridin-3-yl-benzenesulfonamide] | 4.1 |
| CCCCn1c(=O)n(Cc2ccccc2F)c(=O)c2[nH]c(Cc3ccc(S(=O)(=O)Nc4ccccn4)cc3)nc21 [Example 28, 4-[3-Butyl-1-(2-fluoro-benzyl)-2,6-dioxo-2,3,6,7-tetrahydro-1H-purin-8-ylmethyl]-N-pyridin-2-yl-benzenesulfonamide] | 2.4 |
| Cc1nn(C)cc1S(=O)(=O)N(C)c1ccc(Cc2nc3c([nH]2)c(=O)n(Cc2ccccc2F)c(=O)n3CC2CC2)cc1 [Example 27, 1,3-Dimethyl-1H-pyrazole-4-sulfonic acid {4-[3-cyclopropylmethyl-1-(2-fluoro-benzyl)-2,6-dioxo-2,3,6,7-tetrahydro-1H-purin-8-ylmethyl]-phenyl}-methyl-amide] | 1.45 |
| Cc1nn(C)c(Cl)c1S(=O)(=O)N(C)c1ccc(Cc2nc3c([nH]2)c(=O)n(Cc2ccccc2F)c(=O)n3CC2CC2)cc1 [Example 18, 5-Chloro-1,3-dimethyl-1H-pyrazole-4-sulfonic acid {4-[3-cyclopropylmethyl-1-(2-fluoro-benzyl)-2,6-dioxo-2,3,6,7-tetrahydro-1H-purin-8-ylmethyl]-phenyl}-methyl-amide] | 2.05 |
